Where only a bound is given, the exact number is not on record here.

These results are taken from patent US8022206B2 (OSI Pharmaceuticals, LLC, priority 2008, dated 2011).

For one test, the target named is RON (human) (Homo sapiens, UniProt Q04912). Description: RON (human) AlphaScreen kinase assay, Km of ATP. The test is classed as biochemical. The conditions noted are these: AlphaScreen, Km of ATP; read-out: RON biochemical IC50. The method in brief: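 Detection used PT66 AlphaScreen beads added in Tris pH 7.5/NaCl/EDTA/BSA buffer, read after 1 h incubation. Vehicle-only DMSO wells served as controls.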
Chain of RON (human) (Q04912 25-1400): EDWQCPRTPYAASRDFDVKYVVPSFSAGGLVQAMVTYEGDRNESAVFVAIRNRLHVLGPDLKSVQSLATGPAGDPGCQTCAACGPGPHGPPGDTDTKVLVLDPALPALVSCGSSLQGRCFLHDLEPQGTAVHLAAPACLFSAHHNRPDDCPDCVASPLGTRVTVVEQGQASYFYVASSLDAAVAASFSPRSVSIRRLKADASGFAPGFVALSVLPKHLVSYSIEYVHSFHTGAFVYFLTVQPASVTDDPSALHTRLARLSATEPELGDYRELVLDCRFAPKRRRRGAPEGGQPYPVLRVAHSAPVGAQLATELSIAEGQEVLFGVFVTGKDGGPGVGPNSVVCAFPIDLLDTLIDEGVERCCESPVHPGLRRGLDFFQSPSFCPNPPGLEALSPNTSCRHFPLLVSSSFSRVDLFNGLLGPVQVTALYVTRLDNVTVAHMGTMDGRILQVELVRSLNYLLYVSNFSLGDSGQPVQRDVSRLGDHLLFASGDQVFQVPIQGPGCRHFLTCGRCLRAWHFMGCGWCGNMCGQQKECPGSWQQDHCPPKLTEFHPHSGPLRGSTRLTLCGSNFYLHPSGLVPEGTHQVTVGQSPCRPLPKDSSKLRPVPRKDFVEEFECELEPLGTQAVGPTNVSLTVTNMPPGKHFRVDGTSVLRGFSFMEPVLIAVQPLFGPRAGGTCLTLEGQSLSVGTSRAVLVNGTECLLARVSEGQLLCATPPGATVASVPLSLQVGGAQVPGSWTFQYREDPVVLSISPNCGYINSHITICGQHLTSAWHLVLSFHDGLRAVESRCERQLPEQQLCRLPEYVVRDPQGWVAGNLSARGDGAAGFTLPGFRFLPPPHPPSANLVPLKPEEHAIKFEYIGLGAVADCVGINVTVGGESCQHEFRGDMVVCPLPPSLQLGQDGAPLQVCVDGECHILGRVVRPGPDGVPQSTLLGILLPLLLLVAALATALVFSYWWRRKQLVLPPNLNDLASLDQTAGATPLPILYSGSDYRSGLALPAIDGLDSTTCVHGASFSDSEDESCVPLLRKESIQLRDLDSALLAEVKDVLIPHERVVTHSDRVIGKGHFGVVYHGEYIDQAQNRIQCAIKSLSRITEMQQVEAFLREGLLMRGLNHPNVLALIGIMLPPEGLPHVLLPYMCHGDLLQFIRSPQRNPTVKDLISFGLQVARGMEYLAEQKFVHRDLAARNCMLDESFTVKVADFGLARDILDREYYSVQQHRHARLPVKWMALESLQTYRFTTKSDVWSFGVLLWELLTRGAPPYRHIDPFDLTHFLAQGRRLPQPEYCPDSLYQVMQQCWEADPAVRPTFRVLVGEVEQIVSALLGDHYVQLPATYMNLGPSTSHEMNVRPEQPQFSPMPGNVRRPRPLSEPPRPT

The next test concerns the target MET (human) (Homo sapiens, UniProt P08581). The experiment in a line: MET (human) AlphaScreen kinase assay, Km of ATP. It is filed as biochemical. The conditions noted are these: AlphaScreen, Km of ATP; read-out: Met biochemical IC50. The method in brief:
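Human MET at lot-optimised concentration in 50 mM Tris pH 7.4 buffer with 1 mM DTT, compound at 1% DMSO final; enzyme starts the reaction, 60 min at RT.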

Chain of MET (human) (P08581 25-1390): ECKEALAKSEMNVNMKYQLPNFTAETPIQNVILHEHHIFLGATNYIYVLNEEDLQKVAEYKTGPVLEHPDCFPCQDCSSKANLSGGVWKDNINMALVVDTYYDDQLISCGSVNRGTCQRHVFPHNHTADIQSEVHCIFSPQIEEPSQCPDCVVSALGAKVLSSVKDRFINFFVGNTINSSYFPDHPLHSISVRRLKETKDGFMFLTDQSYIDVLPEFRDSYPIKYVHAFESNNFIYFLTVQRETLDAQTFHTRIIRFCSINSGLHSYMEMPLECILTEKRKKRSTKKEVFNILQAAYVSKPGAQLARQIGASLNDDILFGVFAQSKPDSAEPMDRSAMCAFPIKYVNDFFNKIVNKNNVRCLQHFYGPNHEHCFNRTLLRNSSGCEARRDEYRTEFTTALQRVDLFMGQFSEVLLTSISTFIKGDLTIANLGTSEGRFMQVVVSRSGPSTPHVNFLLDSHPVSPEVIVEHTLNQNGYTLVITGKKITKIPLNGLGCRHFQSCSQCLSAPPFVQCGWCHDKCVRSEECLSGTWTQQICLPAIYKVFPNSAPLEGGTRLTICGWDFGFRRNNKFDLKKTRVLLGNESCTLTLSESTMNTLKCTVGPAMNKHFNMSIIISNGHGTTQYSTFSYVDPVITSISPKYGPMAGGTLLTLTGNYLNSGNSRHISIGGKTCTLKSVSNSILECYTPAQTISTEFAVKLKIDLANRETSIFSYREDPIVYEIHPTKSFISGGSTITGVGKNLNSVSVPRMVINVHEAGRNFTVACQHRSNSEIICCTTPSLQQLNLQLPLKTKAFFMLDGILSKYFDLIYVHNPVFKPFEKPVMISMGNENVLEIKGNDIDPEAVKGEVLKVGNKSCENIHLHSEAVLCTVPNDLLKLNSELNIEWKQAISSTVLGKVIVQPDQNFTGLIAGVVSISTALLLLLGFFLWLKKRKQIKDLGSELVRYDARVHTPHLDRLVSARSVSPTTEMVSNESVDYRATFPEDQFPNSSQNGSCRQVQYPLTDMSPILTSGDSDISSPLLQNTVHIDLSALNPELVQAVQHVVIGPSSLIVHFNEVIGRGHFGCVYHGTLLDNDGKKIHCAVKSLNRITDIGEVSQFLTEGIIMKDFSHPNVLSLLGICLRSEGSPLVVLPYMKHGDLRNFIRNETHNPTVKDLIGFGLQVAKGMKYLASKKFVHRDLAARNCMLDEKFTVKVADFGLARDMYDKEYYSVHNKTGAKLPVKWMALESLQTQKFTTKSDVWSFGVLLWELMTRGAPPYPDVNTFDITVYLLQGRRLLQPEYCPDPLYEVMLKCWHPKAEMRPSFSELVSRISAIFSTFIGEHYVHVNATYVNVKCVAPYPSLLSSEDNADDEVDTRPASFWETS

As for `C[C@@H](Oc1c(N)ncc2c(-c3ccc(C(=O)NCC(C)(C)CN(C)C)cc3)coc12)c1c(Cl)ccc(F)c1Cl` [Example 298, 4-{6-Amino-7-[(R)-1-(2,6-dichloro-3-fluorophenyl)ethoxy]furo[3,2-c]pyridin-3-yl}-N-(3-dimethylamino-2,2-dimethylpropyl)benzamide], the results for the IC50 on RON (human) and on MET (human) were 500 to 5000 nM and less than 500 nM, respectively.
For `C[C@@H](Oc1c(N)ncc2c(C3=CCN(C(C)(C)C)CC3)coc12)c1c(Cl)ccc(F)c1Cl` [Example 163, 3-(1-tert-Butyl-1,2,3,6-tetrahydropyridin-4-yl)-7-[(1R)-1-(2,6-dichloro-3-fluorophenyl)ethoxy]furo[3,2-c]pyridin-6-amine] the same measures were less than 500 nM and less than 500 nM.
In the case of `CC(Oc1c(N)ncc2c(C3=CCN(C(N)=O)CC3)coc12)c1c(Br)ccc(F)c1Cl` (stereo not drawn) [Example 457, 4-{6-Amino-7-[1-(6-bromo-2-chloro-3-fluorophenyl)ethoxy]furo[3,2-c]pyridin-3-yl}-3,6-dihydro-2H-pyridine-1-carboxamide], the IC50 was 500 to 5000 nM on RON (human) and less than 500 nM on MET (human).
Regarding `Cn1c(Cc2ccccc2)ncc(-c2ccc(COc3c(N)ncc4ccoc34)cc2)c1=O` [Example 467, 5-[4-(6-Aminofuro[3,2-c]pyridin-7-yloxymethyl)phenyl]-2-benzyl-3-methyl-3H-pyrimidin-4-one], the IC50 at RON (human) is 5000 to 20000 nM; on MET (human) it was more than 20000 nM.
As for `C[C@@H](Oc1c(N)ncc2c(C3=CCN(C(=O)[C@H]4CCCCN4)CC3)coc12)c1c(Cl)ccc(F)c1Cl` [Example 239, (4-{6-Amino-7-[(R)-1-(2,6-dichloro-3-fluorophenyl)ethoxy]-furo[3,2-c]pyridin-3-yl}-3,6-dihydro-2H-pyridin-1-yl)-(R)-piperidin-2-ylmethanone], the IC50 at RON (human) and at MET (human) was less than 500 nM each time.
For the compound `C[C@@H](Oc1c(N)ncc2c(-c3ccc(NC(N)=O)cc3)coc12)c1c(Cl)ccc(F)c1Cl` [Example 108, (4-{6-Amino-7-[(R)-1-(2,6-dichloro-3-fluorophenyl)ethoxy]furo[3,2-c]pyridin-3-yl}phenyl)urea], the concentration for half-maximal inhibition (IC50) on RON (human) and at MET (human) was 500 to 5000 nM each time.
With `C[C@@H](Oc1c(N)ncc2c(-c3cc(C(=O)N(C)C)cs3)coc12)c1c(Cl)ccc(F)c1Cl` [Example 328, 5-{6-Amino-7-[(R)-1-(2,6-dichloro-3-fluorophenyl)ethoxy]furo[3,2-c]pyridin-3-yl}thiophene-3-carboxylic acid Dimethylamide], the IC50 on RON (human) and at MET (human) was 500 to 5000 nM throughout.
On to `C[C@@H](Oc1c(N)ncc2c(-c3cnn(C4CCNCC4)c3)c(Br)oc12)c1c(Cl)ccc(F)c1Cl` [Example 167, 2-Bromo-7-[(R)-1-(2,6-dichloro-3-fluorophenyl)ethoxy]-3-(1-piperidin-4-yl-1H-pyrazol-4-yl)-furo[3,2-c]pyridin-6-ylamine], for which the IC50 at RON (human) was 500 to 5000 nM; at MET (human) it was less than 500 nM.
With `C[C@@H](Cc1ccccc1)Oc1c(N)ncc2c(-c3cnn(C4CCNCC4)c3)coc12` [Example 414, 7-((S)-1-Methyl-2-phenylethoxy)-3-(1-piperidin-4-yl-1H-pyrazol-4-yl)furo[3,2-c]pyridin-6-ylamine], the IC50 on RON (human) was 500 to 5000 nM; at MET (human), less than 500 nM.
In the case of `C[C@@H](Oc1c(N)ncc2c(-c3cccn3C)coc12)c1c(Cl)ccc(F)c1Cl` [Example 121, 7-[(R)-1-(2,6-Dichloro-3-fluorophenyl)ethoxy]-3-(1-methyl-1H-pyrrol-2-yl)furo[3,2-c]pyridin-6-ylamine], the concentration for half-maximal inhibition (IC50) on RON (human) and on MET (human) was 500 to 5000 nM each time.
Turning to `C[C@@H](Oc1c(N)ncc2c(-c3cccc(NS(C)(=O)=O)c3)coc12)c1c(Cl)ccc(F)c1Cl` [Example 79, N-(3-{6-Amino-7-[(R)-1-(2,6-dichloro-3-fluorophenyl)ethoxy]-furo[3,2-c]pyridin-3-yl}phenyl)methanesulfonamide], the IC50 was 500 to 5000 nM at RON (human) and less than 500 nM on MET (human).
Regarding `C[C@@H](Oc1c(N)ncc2c(C(=O)NCC3CCOCC3)coc12)c1c(Cl)ccc(F)c1Cl` [Example 187, 6-Amino-7-[(R)-1-(2,6-dichloro-3-fluorophenyl)ethoxy]furo[3,2-c]pyridine-3-carboxylic acid (tetrahydropyran-4-ylmethyl)amide], the IC50 at RON (human) and at MET (human) was 500 to 5000 nM throughout.
On to `CC(Oc1c(N)ncc2c(-c3cnn(C4CCNCC4)c3)coc12)c1c(Cl)c(F)cc(OCCN(C)C)c1Cl` (stereo not drawn) [Example 157, 7-(1-{2,6-Dichloro-3-[2-(dimethylamino)ethoxy]-5-fluorophenyl}ethoxy)-3-[1-(piperidin-4-yl)-1H-pyrazol-4-yl]furo[3,2-c]pyridin-6-amine], for which the IC50 at RON (human) and on MET (human) was less than 500 nM each time.
As for `Nc1ncc2c(-c3cnn(C4CCNCC4)c3)coc2c1OC(CCc1ccccc1)c1c(Cl)ccc(F)c1Cl` (stereo not drawn) [Example 368, 7-[1-(2,6-Dichloro-3-fluorophenyl)-3-phenylpropoxy]-3-(1-piperidin-4-yl-1H-pyrazol-4-yl)furo[3,2-c]pyridin-6-ylamine], the IC50 at RON (human) and at MET (human) was 500 to 5000 nM throughout.
For `Cc1ccccc1C(C)Oc1c(N)ncc2c(-c3cnn(C4CCNCC4)c3)coc12` (stereo not drawn) [Example 342, 3-(1-Piperidin-4-yl-1H-pyrazol-4-yl)-7-(1-o-tolylethoxy)furo[3,2-c]pyridin-6-ylamine], the IC50 at RON (human) is 500 to 5000 nM; at MET (human), less than 500 nM.
For `C[C@@H](Oc1c(N)ncc2c(C3=CCN(C(=O)[C@@H]4CCCN4C)CC3)coc12)c1c(Cl)ccc(F)c1Cl` [Example 18, (4-{6-Amino-7-[(R)-1-(2,6-dichloro-3-fluorophenyl)-ethoxy]-furo[3,2-c]pyridin-3-yl}-3,6-dihydro-2H-pyridin-1-yl)-((S)-1-methylpyrrolidin-2-yl)-methanone] the same measures were less than 500 nM and less than 500 nM.
For `CC(Cc1ccccc1C(F)(F)F)Oc1c(N)ncc2c(-c3cnn(C4CCNCC4)c3)coc12` (stereo not drawn) [Example 435, 7-[1-Methyl-2-(2-trifluoromethylphenyl)ethoxy]-3-(1-piperidin-4-yl-1H-pyrazol-4-yl)furo[3,2-c]pyridin-6-ylamine] the same measures were 500 to 5000 nM and less than 500 nM.
The matching figures for `CC(Oc1c(N)ncc2c(-c3cnn(C4CCNCC4)c3)coc12)c1cccc(-c2ccn[nH]2)c1` (stereo not drawn) [Example 446]: less than 500 nM and 500 to 5000 nM.
Turning to `C[C@@H](Oc1c(N)ncc2c(C3=CCN(C(=O)N4CCN(C)CC4)CC3)coc12)c1c(Cl)ccc(F)c1Cl` [Example 225, (4-{6-Amino-7-[(R)-1-(2,6-dichloro-3-fluorophenyl)-ethoxy]-furo[3,2-c]pyridin-3-yl}-3,6-dihydro-2H-pyridin-1-yl)-(4-methylpiperazin-1-yl)-methanone], the IC50 at RON (human) and on MET (human) was less than 500 nM throughout.
`C[C@@H](Oc1c(N)ncc2c(-c3cccc(C(N)=O)c3)coc12)c1c(Cl)ccc(F)c1Cl` [Example 70, 3-{6-Amino-7-[(R)-1-(2,6-dichloro-3-fluorophenyl)ethoxy]-furo[3,2-c]pyridin-3-yl}benzamide]: the IC50 on RON (human) and at MET (human) was 500 to 5000 nM in each case.
Take `C[C@@H](Oc1c(N)ncc2c(-c3csc(CN(C)C)c3)coc12)c1c(Cl)ccc(F)c1Cl` [Example 303, 7-[(R)-1-(2,6-Dichloro-3-fluorophenyl)ethoxy]-3-(5-dimethyl-aminomethylthiophen-3-yl)furo[3,2-c]pyridin-6-ylamine]: the IC50 at RON (human) and at MET (human) was less than 500 nM throughout.
As for `C[C@@H](Oc1c(N)ncc2c(C3=CCSCC3)coc12)c1c(Cl)ccc(F)c1Cl` [Example 139, 7-[(R)-1-(2,6-Dichloro-3-fluorophenyl)-ethoxy]-3-(3,6-dihydro-2H-thiopyran-4-yl)-furo[3,2-c]pyridin-6-ylamine], the half-inhibitory concentration (IC50) on RON (human) was 500 to 5000 nM; on MET (human) it was less than 500 nM.
The matching figures for `CC(=O)c1ccc(-c2coc3c(O[C@H](C)c4c(Cl)ccc(F)c4Cl)c(N)ncc23)s1` [Example 114, 1-(5-{6-Amino-7-[(R)-1-(2,6-dichloro-3-fluorophenyl)ethoxy]furo[3,2-c]pyridin-3-yl}thiophen-2-yl)ethanone]: 500 to 5000 nM and 500 to 5000 nM.
As to `C[C@@H](Oc1c(N)ncc2c(-c3cccc(NS(=O)(=O)c4ccccc4)c3)coc12)c1c(Cl)ccc(F)c1Cl` [Example 243, N-(3-{6-Amino-7-[(R)-1-(2,6-dichloro-3-fluorophenyl)ethoxy]-furo[3,2-c]pyridin-3-yl}phenyl)benzenesulfonamide], the IC50 on RON (human) is 5000 to 20000 nM; at MET (human), 500 to 5000 nM.
The matching figures for `C[C@@H](Oc1c(N)ncc2c(-c3ccc(N4CCNCC4)nc3)coc12)c1c(Cl)ccc(F)c1Cl` [Example 130, 7-[(R)-(2,6-Dichloro-3-fluorophenyl)ethoxy]-3-(6-piperazin-1-yl-pyridin-3-yl)furo[3,2-c]pyridin-6-ylamine]: less than 500 nM and less than 500 nM.
The matching figures for `C[C@@H](Oc1c(N)ncc2c(-c3cnn(C4CCNCC4)c3)coc12)c1ccncc1` [Example 397, 3-(1-Piperidin-4-yl-1H-pyrazol-4-yl)-7-((R)-1-pyridin-4-yl-ethoxy)furo[3,2-c]pyridin-6-ylamine]: 500 to 5000 nM and 500 to 5000 nM.
Turning to `C[C@@H](Oc1c(N)ncc2c(-c3cnn(CCN4CCOCC4)c3)coc12)c1c(Cl)ccc(F)c1Cl` [Example 87, 7-[(R)-1-(2,6-Dichloro-3-fluorophenyl)ethoxy]-3-[1-(2-morpholin-4-ylethyl)-1H-pyrazol-4-yl]furo[3,2-c]pyridin-6-ylamine], the 50% inhibitory concentration (IC50) on RON (human) and at MET (human) was 500 to 5000 nM each time.
